# Patent EP0355234A1, “Pyrazolopyridine derivatives as antiatherosclerotic and antihypercholesterolemic agents” (MERRELL DOW PHARMACEUTICALS INC., priority 1988, dated 1990)
# Counter-ions that a name gives are not always drawn.
# Tested on: Hypercholesterolemic Rabbit
# Assay: Antiatherosclerotic and antihypercholesterolemic effects in the hypercholesterolemic (2% cholesterol diet) rabbit, six weeks of treatment
# Format: in vivo, New Zealand white male rabbits
# Conditions: mean ± standard deviation; for % of thoracic arota covered by plaque / Aortic arch cholesterol: 6 weeks treatment; for % of thoracic arota covered by plaque: Sudan Black stain, cut-weight planimetry, positive control Group 2: 70.57±9.54; for Aortic arch cholesterol: positive control Group 2: 15.82±4.64; for Serum Cholesterol: after 6 wks treatment, positive control Group 2: 2475±434
# Procedure: Four groups of New Zealand white male rabbits (weighing 1-2 kg) were treated for six weeks according to the following treatment schedule [all injections were in volumes corresponding to 0.1 ml/kg subcutaneously (s.c.)]: • Group 1 maintained on normal rabbit chow; received polyethylene glycol 300 (PEG ) injection twice daily. • Group 2 (Positive Control) maintained on rabbit chow containing 2% by weight cholesterol; received PEG injection twice daily. • Group 3 maintained on rabbit chow containing 2% by weight cholesterol; received 4,7-dihydro-1,6-dimethyl-4-(2-methylphenyl)-3-(2-methylpropyl)-1H-pyrozolo[3,4-b]pyridine-5-carboxylic acid methyl ester monohydrochloride (compound 1A) at a dose of 1 mg/kg in PEG twice daily. • Group 4 maintained on rabbit chow containing 2% by weight cholesterol; received compound 1A at a dose of 10 mg/kg in PEG twice daily.
# The body weight of each rabbit was measured weekly. At three week and six week intervals after the start of treatment, blood samples were obtained from each rabbit and determinations of platelet aggregation, serum cholesterol, triglycerides, electrolyte concentrations and hematological parameters were performed.
# Six weeks after the start of treatment, the animals were sacrificed. Aortic arches and thoracic aortas were removed and were dissected free of extraneous tissues. The aortic arches were weighed, homogenized in isopropanol, and determinations of cholesterol, triglycerides and electrolyte concentrations were performed. Thoracic aortas were slit down the ventral surface and stained for lipoproteins and lipids by immersion for 5 min in Sudan Black according to the method of Gradwohl (Gradwohl's Clinical Laboratory Methods and Diagnosis (1980) Vol. 1, Edition 8, Chapter 25, pg 771; Sonnenwerth and Jarett, editors, The C.V. Mosby Company, St. Louis, Toronto, London). The percentage of luminal surface covered by atherosclerotic plaque was assessed by "cut-weight" planimetry of the projected image according to the method of Willis et al. (Arteriosclerosis 5, 250 (1985)) whereby the photographic image was projected at a magnification of 7 to 10 and the outer border of the tissue and the boundary between plaque and uninvolved tissue were traced and the appropriate areas were cut out and weighed.
# [1] = Group 3: 1 mg/kg bid s.c. in PEG
# [2] = Group 4: 10 mg/kg bid s.c. in PEG
smiles,measurement,setting,value
"COC(=O)C1=C(C)Nc2c(c(CC(C)C)nn2C)C1c1ccccc1C (stereo not drawn) [Compound 1A, 4,7-dihydro-1,6-dimethyl-4-(2-methylphenyl)-3-(2-methylpropyl)-1H-pyrozolo[3,4-b]pyridine-5-carboxylic acid methyl ester monohydrochloride]",% of thoracic arota covered by plaque,[1],34.33±19.03 %
same,Aortic arch cholesterol,[1],9.57±1.38 µg/mg wet wt.
same,Serum Cholesterol,[1],1919 ± 345 mg/dL
same,% of thoracic arota covered by plaque,[2],36.71±9.95 %
same,Aortic arch cholesterol,[2],9.27±1.91 µg/mg wet wt.
same,Serum Cholesterol,[2],1774 ± 300 mg/dL
